Measurements taken from publication PMC9570967 (Molecules, 2022).
“Also recorded” adds a separate entry of the source.

Tests used:
mouse mu opioid receptor [1] = biological target: T1, mouse mu opioid receptor (Mus musculus, UniProt P42866); assay: Competition radioligand binding assay ([3H]naloxone, mMOR-CHO membranes); conditions: 1.4 nM [3H]naloxone, read-out: [3H]NLX Binding Ki
T1 construct: expressed in transfected cells; host or cells: CHO (mMOR-CHO), membrane homogenates
Experimental: In vitro binding assays were performed using monocloned mouse mu opioid receptor expressing Chinese hamster ovary (CHO) cells (mMOR-CHO). mMOR-CHO cell culture and membrane homogenate preparation were performed as previously described. All assays were duplicated and repeated at least three times.
Competition binding assays were performed as previously described. […] Bound radioactive ligand was isolated by filtration through GF/B glass fiber filters and rinsed three times with ice-cold wash buffer (50 mM Tris-HCl, pH 7.2). Bound radioactivity was determined via liquid scintillation ounting. […] The IC50 values were determined by nonlinear regression analysis using GraphPad Prism 9 (GraphPad Software, San Diego, CA, USA) and converted to Ki values using the Cheng–Prusoff equation.

mouse mu opioid receptor [2] = biological target: T1, mouse mu opioid receptor; assay: [35S]GTPγS functional assay (mMOR-CHO membranes); format: biochemical; conditions: for EC50: mMOR-CHO membranes, read-out: GTPgS EC50; for Emax: read-out: GTPgS % Emax of (DAMGO)
squirrel monkeys [3] = assay: Antinociception: warm-water tail-withdrawal; format: in vivo, squirrel monkeys (Saimiri sciureus); conditions: 52 °C water, cumulative dosing
Experimental: Male squirrel monkeys (Saimiri sciureus) were housed in a climate-controlled vivarium with a 12 h light/dark cycle (7 AM–7 PM) in the McLean Hospital Animal Care Facility (licensed by the U.S. Department of Agriculture and compliant with guidelines provided by the Committee on Care and Use of Laboratory Animals of the Institute of Laboratory Animals Resources, Commission on Life Sciences, National Research Council; 2011). Tail withdrawal latencies were assessed as described previously. Briefly, monkeys were seated in customized Plexiglas chairs that allowed their tails to hang freely. Tail withdrawal latencies were measured by immersing the subject’s tail in water held at 35 or 52 °C (temperatures were presented in a randomized order during successive test components). After obtaining a baseline tail withdrawal latency, complete dose response curves were generated in each subject using standard cumulative dosing procedures. Briefly, every 15 min after an injection tail-withdrawal latencies at each temperature were redetermined and subjects were injected with the next dose, such that the total (cumulative) dose was increased by ½ log10 units in each successive cycle. This procedure was repeated until either (a) the tail-withdrawal latency from 52 °C water reached the maximum allowable latency (10 sec), or (b) tail-withdrawal latency no longer increased with increases in dose of the test drug.
(§1) All statistical analyses and graphic representations were completed with GraphPad Prism version 9.3.0 (GraphPad Software, San Diego, CA, USA) using log transformed values of doses. Group means ± SEM tail withdrawal latencies (in sec) and minute volume ratios are plotted as a function of drug dose. Data were analyzed using One-way ANOVA with significance set at p < 0.05, followed by Dunnett’s multiple comparison test.

squirrel monkeys [4] = assay: Respiratory depression: ventilatory response to hypercapnia (5% CO2 in air); format: in vivo, squirrel monkeys (Saimiri sciureus); conditions: ratio of minute volumes in 5% CO2 and room air, cumulative dosing
Experimental: Ventilation measures were assessed as described previously. Briefly, squirrel monkeys were acclimated to a customized acrylic chamber (10″ d × 10″ w × 10″ h) that served as a whole-body plethysmograph (EMKA Technologies, Montreal, PQ, Canada). Gas (either air or a 5% CO2 in air mixture) was introduced to and extracted from the chamber at a constant flow rate of 5 L/min. Experimental sessions consisted of 4–6 consecutive 30 min cycles, each comprising a 20 min exposure to air followed by a 10 min exposure to 5% CO2. Drug effects were determined using cumulative dosing procedures, and injections were administered following each exposure to 5% CO2. Respiratory rate and tidal volume (mL/breath) were recorded over 1 min periods and were multiplied to provide minute volumes. Data from the last three minutes of each exposure to air or CO2 were averaged and used for analysis of drug effects on ventilation.
as §1

[5] = biological target: T2, human κ-opioid receptor (OPRK1) (Homo sapiens, UniProt P41145); conditions: versus EC90 of U50488H; normalized to nor-BNI
[6] = biological target: T2, human κ-opioid receptor (OPRK1); assay: cell-based
[7] = biological target: T2, human κ-opioid receptor (OPRK1); assay: cell-based; remark: listed apart in the source
[8] = biological target: T3, human δ-opioid receptor (OPRD1) (Homo sapiens, UniProt P41143); assay: Forskolin-induced cAMP accumulation assay, DOR agonist mode; conditions: for Emax: CHO-K1, read-out: DOR Agonist %Emax ± SEM
[9] = biological target: T3, human δ-opioid receptor (OPRD1); assay: Forskolin-induced cAMP accumulation assay, DOR antagonist mode; conditions: for DOR Antagonist %Imax ± SEM: versus EC50 of SNC80, normalized to naltrexone

T3 sequence (P41143 whole entry): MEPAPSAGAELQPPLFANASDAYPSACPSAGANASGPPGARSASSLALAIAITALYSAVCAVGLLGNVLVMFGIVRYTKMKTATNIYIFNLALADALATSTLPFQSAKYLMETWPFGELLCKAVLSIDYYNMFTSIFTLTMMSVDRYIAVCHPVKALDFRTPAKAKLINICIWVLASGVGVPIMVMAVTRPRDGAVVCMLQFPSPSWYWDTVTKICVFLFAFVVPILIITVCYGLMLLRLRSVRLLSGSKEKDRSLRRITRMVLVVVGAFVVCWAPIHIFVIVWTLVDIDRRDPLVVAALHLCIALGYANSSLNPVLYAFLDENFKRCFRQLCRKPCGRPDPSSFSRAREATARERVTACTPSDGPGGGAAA
T1 sequence (P42866 whole entry): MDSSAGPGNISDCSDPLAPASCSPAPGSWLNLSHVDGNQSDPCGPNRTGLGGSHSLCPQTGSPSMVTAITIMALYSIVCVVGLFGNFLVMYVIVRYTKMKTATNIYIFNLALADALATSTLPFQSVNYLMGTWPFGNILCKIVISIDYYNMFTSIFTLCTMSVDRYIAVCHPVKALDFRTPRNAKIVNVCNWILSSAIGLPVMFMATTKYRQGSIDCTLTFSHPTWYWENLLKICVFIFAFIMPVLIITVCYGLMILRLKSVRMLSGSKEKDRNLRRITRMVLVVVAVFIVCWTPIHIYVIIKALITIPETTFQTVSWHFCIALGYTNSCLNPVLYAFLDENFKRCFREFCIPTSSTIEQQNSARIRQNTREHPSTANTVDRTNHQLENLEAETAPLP
T2 sequence (P41145 whole entry): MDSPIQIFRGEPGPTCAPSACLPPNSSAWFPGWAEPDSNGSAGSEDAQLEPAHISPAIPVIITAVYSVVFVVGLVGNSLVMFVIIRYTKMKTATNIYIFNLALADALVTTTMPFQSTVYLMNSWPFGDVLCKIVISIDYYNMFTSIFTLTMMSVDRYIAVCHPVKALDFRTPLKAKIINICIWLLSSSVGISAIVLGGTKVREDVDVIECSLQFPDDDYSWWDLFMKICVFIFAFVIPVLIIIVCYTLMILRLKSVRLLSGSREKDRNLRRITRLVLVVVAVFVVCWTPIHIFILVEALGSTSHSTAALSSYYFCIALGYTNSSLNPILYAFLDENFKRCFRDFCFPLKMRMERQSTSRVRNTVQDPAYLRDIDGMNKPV

C=C[C@H]1[C@H]2CCC[C@]1(c1cccc(O)c1)CCN2CCc1ccccc1 [Compound 8, 3-((1R,5S,9R)-2-Phenethyl-9-vinyl-2-azabicyclo [3.3.1]nonan-5-yl)phenol]
Ki (mouse mu opioid receptor [1]): 0.5 ± 0.05 nM
EC50 (mouse mu opioid receptor [2]): 6.73 ± 1.35 nM
Emax (mouse mu opioid receptor [2]): 20.1 ± 0.78%
Effect on tail withdrawal latency (antinociception) (squirrel monkeys [3]): significantly increased tail withdrawal latency; also recorded: had antinociceptive effects
Effect on ventilatory ratio (respiratory depression) (squirrel monkeys [4]): reduced the ability of 5% CO2 to stimulate increases in ventilation; also recorded: morphine-like respiratory depressant effects
KOR Antagonist %Imax ± SEM [5]: 97.1 ± 9.2%
EC50 [6]: > 10000 nM
IC50 [7]: 74 ± 30.5 nM
EC50 [8]: > 10000 nM
IC50 [9]: 113 ± 43.6 nM
DOR Antagonist %Imax ± SEM [9]: 119.1 ± 15.5%

C=C[C@@H]1[C@H]2CCC[C@]1(c1cccc(O)c1)CCN2CCc1ccccc1 [Compound 9, 3-((1R,5S,9S)-2-Phenethyl-9-vinyl-2-azabicyclo [3.3.1]nonan-5-yl)phenol]
Ki (mouse mu opioid receptor [1]): 1.91 ± 0.13 nM
EC50 (mouse mu opioid receptor [2]): 37 ± 15.5 nM
Emax (mouse mu opioid receptor [2]): 10.5 ± 0.82%
Effect on tail withdrawal latency (antinociception) (squirrel monkeys [3]): inconsistent effect of tail withdrawal latency; also recorded: antinociceptive effects in some, but not all subjects
Effect on ventilatory ratio (respiratory depression) (squirrel monkeys [4]): did not alter ventilation; also recorded: did not produce morphine-like decreases in ventilatory ratio
KOR Antagonist %Imax ± SEM [5]: 101.8 ± 19.1%
EC50 [6]: > 10000 nM
IC50 [7]: 19.8 ± 9.7 nM
EC50 [8]: 57 ± 21.4 nM
Emax [8]: 22.6%

C=C[C@H]1[C@@H]2CCC[C@@]1(c1cccc(OC)c1)CCN2CCc1ccccc1 [Compound 13, (1S,5R,9R)-5-(3-Methoxyphenyl)-2-phenethyl-9-vinyl-2-azabicyclo [3.3.1]nonane]
EC50 [6]: > 10000 nM
IC50 [7]: > 10000 nM
EC50 [8]: > 10000 nM
IC50 [9]: > 10000 nM

C=C[C@@H]1[C@@H]2CCC[C@@]1(c1cccc(O)c1)CCN2CCc1ccccc1 [Compound 14, 3-((1S,5R,9S)-2-Phenethyl-9-vinyl-2-azabicyclo [3.3.1]nonan-5-yl)phenol]
KOR Antagonist %Imax ± SEM [5]: 105.6 ± 4.6%
EC50 [6]: > 10000 nM
IC50 [7]: 128 ± 48.2 nM
EC50 [8]: 122 ± 47.2 nM
Emax [8]: 40.6%

C=C[C@H]1[C@@H]2CCC[C@@]1(c1cccc(O)c1)CCN2CCc1ccccc1 [Compound 15, 3-((1S,5R,9R)-2-Phenethyl-9-vinyl-2-azabicyclo [3.3.1]nonan-5-yl)phenol]
KOR Antagonist %Imax ± SEM [5]: 104.9 ± 11.2%
EC50 [6]: > 10000 nM
IC50 [7]: 28.4 ± 4.2 nM
EC50 [8]: > 10000 nM
IC50 [9]: 144 ± 41 nM
DOR Antagonist %Imax ± SEM [9]: 201.4 ± 35.9%

C/C=C\[C@H]1[C@H]2CCC[C@]1(c1cccc(O)c1)CCN2CCc1ccccc1 [Compound 17, 3-((1R,5S,9R)-2-Phenethyl-9-((Z)-prop-1-en-1-yl)-2-azabicyclo [3.3.1]nonan-5-yl)phenol]
Ki (mouse mu opioid receptor [1]): 1.83 ± 0.24 nM
EC50 (mouse mu opioid receptor [2]): 9.64 ± 1.7 nM
Emax (mouse mu opioid receptor [2]): 18 ± 1.45%
Effect on tail withdrawal latency (antinociception) (squirrel monkeys [3]): increased tail withdrawal latency; also recorded: consistent and significant antinociceptive effects
Effect on ventilatory ratio (respiratory depression) (squirrel monkeys [4]): without significantly altering ventilation; also recorded: limited effects on ventilatory ratio
KOR Antagonist %Imax ± SEM [5]: 111.6 ± 7.9%
EC50 [6]: > 10000 nM
IC50 [7]: 35 ± 9.7 nM
EC50 [8]: > 10000 nM
IC50 [9]: 113 ± 19.8 nM
DOR Antagonist %Imax ± SEM [9]: 143.3 ± 11.9%

C/C=C\[C@@H]1[C@H]2CCC[C@]1(c1cccc(O)c1)CCN2CCc1ccccc1 [Compound 18, 3-((1R,5S,9S)-2-Phenethyl-9-((Z)-prop-1-en-1-yl)-2-azabicyclo [3.3.1]nonan-5-yl)phenol]
Ki (mouse mu opioid receptor [1]): 0.56 ± 0.07 nM
EC50 (mouse mu opioid receptor [2]): 8.38 ± 0.77 nM
Emax (mouse mu opioid receptor [2]): 75.3 ± 3.83%
KOR Antagonist %Imax ± SEM [5]: 114.8 ± 11.2%
EC50 [6]: > 10000 nM
IC50 [7]: 238 ± 52.6 nM
EC50 [8]: 9.69 ± 2.23 nM
Emax [8]: 74.5%

C/C=C\[C@H]1[C@@H]2CCC[C@@]1(c1cccc(O)c1)CCN2CCc1ccccc1 [Compound 20, 3-((1S,5R,9R)-2-Phenethyl-9-((Z)-prop-1-en-1-yl)-2-azabicyclo [3.3.1]nonan-5-yl)phenol]
KOR Antagonist %Imax ± SEM [5]: 126.7 ± 2.6%
EC50 [6]: > 10000 nM
IC50 [7]: 4.02 ± 0.25 nM
EC50 [8]: > 10000 nM
IC50 [9]: 7.52 ± 2.93 nM
DOR Antagonist %Imax ± SEM [9]: 142.5 ± 23.7%

C/C=C\[C@@H]1[C@@H]2CCC[C@@]1(c1cccc(O)c1)CCN2CCc1ccccc1 [Compound 21, 3-((1S,5R,9S)-2-Phenethyl-9-((Z)-prop-1-en-1-yl)-2-azabicyclo [3.3.1]nonan-5-yl)phenol]
KOR Antagonist %Imax ± SEM [5]: 111.8 ± 2.2%
EC50 [6]: > 10000 nM
IC50 [7]: 163 ± 37 nM
EC50 [8]: 60.5 ± 3.7 nM
Emax [8]: 66.7%

CC/C=C\[C@H]1[C@H]2CCC[C@]1(c1cccc(O)c1)CCN2CCc1ccccc1 [Compound 23, 3-((1R,5S,9R)-9-((Z)-But-1-en-1-yl)-2-phenethyl-2-azabicyclo [3.3.1]nonan-5-yl)phenol]
KOR Antagonist %Imax ± SEM [5]: 109.5 ± 8.3%
EC50 [6]: > 10000 nM
IC50 [7]: 328 ± 96.9 nM
EC50 [8]: > 10000 nM
IC50 [9]: 69 ± 4.8 nM
DOR Antagonist %Imax ± SEM [9]: 166.6 ± 40.0%

CC/C=C\[C@@H]1[C@H]2CCC[C@]1(c1cccc(O)c1)CCN2CCc1ccccc1 [Compound 24, 3-((1R,5S,9S)-9-((Z)-But-1-en-1-yl)-2-phenethyl-2-azabicyclo [3.3.1]nonan-5-yl)phenol]
KOR Antagonist %Imax ± SEM [5]: 103.8 ± 9.2%
EC50 [6]: > 10000 nM
IC50 [7]: 283 ± 46.4 nM
EC50 [8]: > 10000 nM
IC50 [9]: 3220 ± 572 nM
DOR Antagonist %Imax ± SEM [9]: 182.3 ± 56.4%

CC/C=C\[C@@H]1[C@@H]2CCC[C@@]1(c1cccc(O)c1)CCN2CCc1ccccc1 [Compound 26, 3-((1S,5R,9S)-9-((Z)-But-1-en-1-yl)-2-phenethyl-2-azabicyclo [3.3.1]nonan-5-yl)phenol]
KOR Antagonist %Imax ± SEM [5]: 96.2 ± 0.9%
EC50 [6]: > 10000 nM
IC50 [7]: 12.2 ± 2.5 nM
EC50 [8]: > 10000 nM
IC50 [9]: 520 ± 144 nM
DOR Antagonist %Imax ± SEM [9]: 226.1 ± 14.0%

CC/C=C\[C@H]1[C@@H]2CCC[C@@]1(c1cccc(O)c1)CCN2CCc1ccccc1 [Compound 27, 3-((1S,5R,9R)-9-((Z)-But-1-en-1-yl)-2-phenethyl-2-azabicyclo [3.3.1]nonan-5-yl)phenol]
KOR Antagonist %Imax ± SEM [5]: 98.2 ± 2.3%
EC50 [6]: > 10000 nM
IC50 [7]: 0.79 ± 0.28 nM
EC50 [8]: > 10000 nM
IC50 [9]: 8.22 ± 2.44 nM
DOR Antagonist %Imax ± SEM [9]: 211.5 ± 24.7%

CN1CC[C@]23c4c5ccc(O)c4O[C@H]2[C@@H](O)C=C[C@H]3[C@H]1C5 [Morphine, reference compound]
Effect on tail withdrawal latency (antinociception) (squirrel monkeys [3]): significantly increased tail withdrawal latency
